Experimental data as given in US12370182B2, “Bicyclic derivatives as GABAA A5 receptor modulators” (RICHTER GEDEON NYRT., priority 2018, dated 2025).

Assays:
[1] = molecular target: T1, human recombinant GABAA α5β3γ2 receptor (Homo sapiens (Human), UniProt P18507+P31644); assay: Binding assay, [3H]Ro151788 displacement on membranes of HEK cells; details: 0.5 nM [3H]Ro151788, 60 minutes at 4° C., Cheng-Prusoff; read-out: hGABAA α5 Ki
Outline: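 HEK-cell membranes with recombinant human α5β3γ2 incubated 60 min at 4 °C with 0.5 nM [3H]Ro151788 in 50 mM Tris pH 7.4, 100 mM KCl; nonspecific binding with 10 μM diazepam. Filtration, scintillation count; % inhibition of specific binding, IC50 from ≥6 concentrations in triplicate, Ki via Cheng-Prusoff.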

[2] = molecular target: human recombinant GABAA α1β3γ2 receptor (Homo sapiens (Human), UniProt P14867+P18507); assay: Functional assay, QPatch automated patch clamp, GABA-evoked currents; assay type: cell-based; details: test compound 10 μM, 1 μM GABA, HEK293 cells, percentage modulation of peak current
human recombinant GABAA α1β3γ2 receptor, sequence (P14867 28-456): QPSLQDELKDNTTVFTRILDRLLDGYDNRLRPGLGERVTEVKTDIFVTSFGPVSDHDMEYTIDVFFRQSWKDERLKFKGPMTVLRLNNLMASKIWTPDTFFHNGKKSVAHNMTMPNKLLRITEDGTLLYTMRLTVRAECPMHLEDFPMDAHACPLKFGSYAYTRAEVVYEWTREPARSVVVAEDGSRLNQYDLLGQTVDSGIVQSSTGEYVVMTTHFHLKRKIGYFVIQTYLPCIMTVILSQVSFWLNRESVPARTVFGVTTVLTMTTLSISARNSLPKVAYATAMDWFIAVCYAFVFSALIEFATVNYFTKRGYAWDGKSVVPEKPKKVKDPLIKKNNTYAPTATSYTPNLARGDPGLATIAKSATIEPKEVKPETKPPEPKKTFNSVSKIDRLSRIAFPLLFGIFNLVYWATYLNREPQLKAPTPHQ
human recombinant GABAA α1β3γ2 receptor, sequence (P28472 26-473 partner): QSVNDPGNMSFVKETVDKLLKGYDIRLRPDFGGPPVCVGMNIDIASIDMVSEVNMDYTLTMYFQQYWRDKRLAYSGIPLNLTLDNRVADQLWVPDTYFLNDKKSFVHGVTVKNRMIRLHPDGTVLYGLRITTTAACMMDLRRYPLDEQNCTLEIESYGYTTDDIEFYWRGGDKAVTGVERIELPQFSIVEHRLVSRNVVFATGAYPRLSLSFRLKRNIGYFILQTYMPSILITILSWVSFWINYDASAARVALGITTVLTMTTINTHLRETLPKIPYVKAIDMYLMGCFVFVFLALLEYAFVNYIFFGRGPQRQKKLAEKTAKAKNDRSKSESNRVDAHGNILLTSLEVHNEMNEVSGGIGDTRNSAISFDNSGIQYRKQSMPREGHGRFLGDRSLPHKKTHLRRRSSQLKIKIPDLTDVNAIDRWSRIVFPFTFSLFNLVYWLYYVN
human recombinant GABAA α1β3γ2 receptor, sequence (P18507 40-475): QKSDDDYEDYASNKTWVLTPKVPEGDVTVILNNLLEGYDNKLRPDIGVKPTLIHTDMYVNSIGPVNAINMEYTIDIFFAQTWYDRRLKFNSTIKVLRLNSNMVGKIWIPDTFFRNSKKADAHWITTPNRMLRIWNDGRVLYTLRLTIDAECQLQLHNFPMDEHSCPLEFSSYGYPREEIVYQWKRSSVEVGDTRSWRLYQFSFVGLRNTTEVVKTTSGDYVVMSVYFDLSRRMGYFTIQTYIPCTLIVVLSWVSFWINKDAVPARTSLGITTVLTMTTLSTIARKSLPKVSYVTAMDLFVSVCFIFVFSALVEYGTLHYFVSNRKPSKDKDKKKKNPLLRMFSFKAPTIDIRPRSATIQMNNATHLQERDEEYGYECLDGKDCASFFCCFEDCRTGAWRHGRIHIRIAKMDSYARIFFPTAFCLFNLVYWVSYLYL
Description: (§1) Human HEK293 cell lines expressing GABAA α1β3γ2 and GABAAα5β3γ2 receptors were used in functional assays using the QPatch automated patch clamp system.
(§2) HEK293 cell lines stably expressing human recombinant GABAA α1β3γ2 receptor subunits (Millipore, CYL3073) or human recombinant GABAA α5β3γ2 receptor subunits (Millipore, CYL3053) were cultured in DMEM supplemented with 10% FBS (Gibco), passed two times per week and plated on Petri dishes previously coated with poly-d-lysine.
(§3) Automated whole-cell patch clamp recordings were made from cells 2-4 days after plating. Cells were detached using trypsin/EDTA (Sigma) treatment (2 minutes in 0.25% trypsin at 37° C.), then, after centrifugation (125 G, 3 min, 2×), resuspended in a serum-free based media (Gibco, CHO—S-SFM-II) containing 12.5 mM HEPES, 1× penicillin-streptomycin-amphotericin (SigmaMix) and soybean trypsin inhibitor (Sigma, 0.04 mg/ml).
(§4) Cell suspension, as well as the extracellular solution (130 mM NaCl, 5 mM KCl, 5.1 mM HEPES, 4.9 mM HEPES-Na, 10 mM CaCl2), 2 mM MgCl2, 10 mM glucose and 0.1% DMSO, pH=7.35-7.4) and the intracellular solution (80 mM KCl, 50 mM KF, 36 mM KOH, 10 mM EGTA, 10 mM HEPES, 1.75 mM MgCl2, 0.5 mM CaCl2), 4 mM Na2ATP. 14 mM phosphocreatine, 50 U/ml creatine-phosphokinase, 0.3 mM GTP, pH=7.25-7.3) were added to the QPatch-HTX automated patch clamp system (Sophion) in single-cell mode at room temperature. […] At the end of the experiment 100 μM GABA was applied to saturate the GABA-response and to assess the efficacy of the control GABA application.
(§5) The percentage modulation was calculated from the comparison of GABA-evoked peak current amplitudes in the presence and absence of the test compound.

[3] = molecular target: T1, human recombinant GABAA α5β3γ2 receptor; assay: as above; assay type: cell-based; details: test compound 10 μM, 1 μM GABA, HEK293 cells, percentage modulation of peak current
Description: as §1, §2, §3, §4, §5

T1 sequence (P31644 32-462): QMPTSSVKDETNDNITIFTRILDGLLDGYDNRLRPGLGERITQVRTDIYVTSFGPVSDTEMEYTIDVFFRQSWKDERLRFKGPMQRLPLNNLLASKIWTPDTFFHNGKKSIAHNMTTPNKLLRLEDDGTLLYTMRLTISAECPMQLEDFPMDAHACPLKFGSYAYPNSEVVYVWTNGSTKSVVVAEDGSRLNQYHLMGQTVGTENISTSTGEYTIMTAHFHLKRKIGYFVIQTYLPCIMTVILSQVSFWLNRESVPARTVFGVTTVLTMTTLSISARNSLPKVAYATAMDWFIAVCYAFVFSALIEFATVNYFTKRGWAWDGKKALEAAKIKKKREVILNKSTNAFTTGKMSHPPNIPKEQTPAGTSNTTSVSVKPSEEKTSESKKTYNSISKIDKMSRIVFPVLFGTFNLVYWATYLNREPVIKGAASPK
T1 sequence (P28472 26-473 partner): as the sequence (P28472 26-473 partner) above
T1 sequence (P18507 40-475): as the sequence (P18507 40-475) above

| Structure (SMILES) | Ki [1] [nM] | hGABAA α1 efficacy [2] [%] | hGABAA α5 efficacy [3] [%] |
| --- | --- | --- | --- |
| Cc1nnn(-c2ccc(F)cc2)c1COc1ccc2c(n1)CCN(C(=O)NC1CCOC1)C2 (stereo not drawn) [Example 78, 2-{[1-(4-fluorophenyl)-4-methyl-1H-1,2,3-triazol-5-yl]methoxy}-N-(oxolan-3-yl)-5,6,7,8-tetrahydro-1,6-naphthyridine-6-carboxamide] | 28 | −3 | −34 |
| Cc1onc(-c2ccc(F)cc2)c1COc1ccc2c(n1)CCN(C(=O)C1CC(=O)N(C)C1)C2 (stereo not drawn) [Example 13, 4-(2-{[3-(4-fluorophenyl)-5-methyl-1,2-oxazol-4-yl]methoxy}-5,6,7,8-tetrahydro-1,6-naphthyridine-6-carbonyl)-1-methylpyrrolidin-2-one] | 4.3 | −3 | −34 |
| CC(=O)N1Cc2ccc(OCc3c(C)nnn3-c3ccc(F)cc3)nc2C1 [Example 45, 1-(2-{[1-(4-fluorophenyl)-4-methyl-1H-1,2,3-triazol-5-yl]methoxy}-5H,6H,7H-pyrrolo[3,4-b]pyridin-6-yl)ethan-1-one] | 3.2 | −7 | −30 |
